Data from article PMC6120666 (The EMBO Journal, 2018).

Experiments:
[1] = system: U2OS/NOD2 cells; assay: Intracellular flow cytometry of CXCL8 after L18-MDP; type: cell-based, human; details: U2OS/NOD2 RIPK2 KO cells reconstituted with T95W gatekeeper mutant; L18-MDP 200 ng/ml, 4 h
Method: Purified material and lysates were analyzed by immunoblotting. […] Numbering below schematic refers to amino acid residues in human RIPK2 and indicate domain boundaries. […] Data information: Data in (A, B, D, H) represent the mean ± SEM of 2–4 independent experiments, each performed in duplicate. […] Two‐way ANOVA was used to determine statistical significance. See also Fig EV1.Source data are available online for this figure.
Dark gray represents areas occupied by RIPK2; white areas indicate empty spaces in CSLP binding pocket. […] Dotted black box indicates region shown for models with CSLP37 and CSLP43. • Molecular docking model of RIPK2 kinase domain in complex with CSLP43 (green) based on RIPK2/CSLP18 structure from (D). […] Two‐way ANOVA was used to determine statistical significance. See also Fig EV2.
(§1) GST-BIR2-XIAP as indicated. Intensity quantification of SPOTs was performed using ImageJ software
(§2) Dual luciferase reporter assay
(§3) Intracellular flow cytometry of CXCL8
(§4) for cell death) or vehicle for 24h. Viability was determined using the CellTiter-Glo® luminescent cell
(§5) together with Transfection Carrier DNA (Promega).
(§6) After addition of Nano-Glo

[2] = target: T1, XIAP-RIPK2 interaction in HEK293FT cells (Homo sapiens, UniProt O43353); assay: Co-immunoprecipitation of HA-XIAP with endogenous RIPK2; type: cell-based; details: 200 nM
T1 construct: endogenous RIPK2 from HEK293FT cells; endogenous in cells; host or cells: HEK293FT cells (RIPK2 endogenous; 3xHA-XIAP-F495A transfected)
Method: Purified material and lysates were analyzed by immunoblotting. • Pulldown of RIPK2 from U2OS/NOD2 cell lysates with recombinant GST‐BIR2‐XIAP in the presence of CSLP inhibitors. […] Purified material and lysates were analyzed by immunoblotting. • Pulldown of recombinant RIPK2 kinase domain (dephosphorylated) with recombinant GST‐BIR2‐XIAP in the presence of CSLP inhibitors as indicated. Inhibitors were used at the same concentrations as in (C). Purified material and lysates were analyzed by immunoblotting. • Purification of Ub‐conjugates from THP‐1 cells after treatment with L18‐MDP (200 ng/ml, 1 h) and CSLP inhibitors as indicated. Purified material and lysates were analyzed by immunoblotting. […]
For co‐immunoprecipitation of HA‐XIAP with RIPK2, transfected and treated cells were lysed in TBS buffer containing 0.5% NP‐40, cOmplete and PhosSTOP inhibitors (Roche) and the lysate was cleared by centrifugation. The lysates were incubated with anti‐HA‐agarose overnight, washed 3× with lysis buffer, and analyzed by immunoblotting. […] Bound material was washed 3× with lysis buffer or PBS, eluted with 15 mM Glutathione in PBS, and analyzed by immunoblotting. […] The bound material was eluted and analyzed as described above. […]
(§7) Ubiquitin conjugates were purified from treated cells using GST-1xUBAubq ubiquitin affinity reagent and analyzed by immunoblotting as described (Fiil et al., 2013). […]

[3] = target: T2, NanoLuc-RIPK2 WT and T95W (Homo sapiens, UniProt O43353, T95W); assay: nanoBRET assay in HEK293 cells with SGC-590001 probe; type: binding; details: up to more than 100 nM
T2 construct: expressed in transfected cells; host or cells: HEK293 cells
Method: Purified material and lysates were analyzed by immunoblotting. […] Two‐way ANOVA was used to determine statistical significance.
as §1, §2, §3, §4, §5, §6

[4] = system: RIPK2 ubiquitination in U2OS/NOD2 and THP-1 cells; assay: Purification of Ub-conjugates (TUBE pulldown), RIPK2 ubiquitination; type: cell-based, human
Method: For co‐immunoprecipitation of HA‐XIAP with RIPK2, transfected and treated cells were lysed in TBS buffer containing 0.5% NP‐40, cOmplete and PhosSTOP inhibitors (Roche) and the lysate was cleared by centrifugation. The lysates were incubated with anti‐HA‐agarose overnight, washed 3× with lysis buffer, and analyzed by immunoblotting. For GST pulldown experiments, U2OS/NOD2 cells were lysed in TBS lysis buffer containing 0.5% NP‐40, cOmplete and PhosSTOP inhibitors (Roche). Cleared lysates were pretreated with kinase inhibitors or DMSO and incubated with GST‐XIAP‐BIR2 bound to Glutathione Sepharose at 4°C overnight. Bound material was washed 3× with lysis buffer or PBS, eluted with 15 mM Glutathione in PBS, and analyzed by immunoblotting. […] The bound material was eluted and analyzed as described above. […]
PBS, eluted with 15 mM Glutathione in PBS and analyzed by immunoblotting. […]

[5] = target: T3, XIAP BIR2 - RIPK2 interaction (Homo sapiens, UniProt O43353); assay: GST-BIR2-XIAP pulldown of RIPK2; type: binding; details: U2OS/NOD2 lysates; inhibitors at 100-fold IC50 of RIPK2 kinase activity
T3 construct: U2OS/NOD2 cells were lysed in TBS lysis buffer; endogenous in cells; host or cells: U2OS/NOD2 cell lysate (RIPK2); E. coli BL21 (GST-BIR2-XIAP)
Method: For co‐immunoprecipitation of HA‐XIAP with RIPK2, transfected and treated cells were lysed in TBS buffer containing 0.5% NP‐40, cOmplete and PhosSTOP inhibitors (Roche) and the lysate was cleared by centrifugation. The lysates were incubated with anti‐HA‐agarose overnight, washed 3× with lysis buffer, and analyzed by immunoblotting. For GST pulldown experiments, U2OS/NOD2 cells were lysed in TBS lysis buffer containing 0.5% NP‐40, cOmplete and PhosSTOP inhibitors (Roche). Cleared lysates were pretreated with kinase inhibitors or DMSO and incubated with GST‐XIAP‐BIR2 bound to Glutathione Sepharose at 4°C overnight. Bound material was washed 3× with lysis buffer or PBS, eluted with 15 mM Glutathione in PBS, and analyzed by immunoblotting. […] The bound material was eluted and analyzed as described above.
(§8) For coimmunoprecipitation of HA-XIAP with RIPK2, transfected and treated cells were lysed in TBS buffer containing 0.5% NP-40, cOmplete and PhosSTOP inhibitors (Roche) and the lysate was cleared by centrifugation. The lysates were incubated with anti-HA-agarose overnight, washed 3x with lysis buffer and analyzed by immunoblotting. For GST pull-down experiments, U2OS/NOD2 were lysed in TBS lysis buffer containing 0.5% NP-40, cOmplete and PhosSTOP inhibitors (Roche).
Cleared lysates were pretreated with kinase inhibitors or DMSO and incubated with GST-XIAP-BIR2 bound to Glutathione Sepharose at 4 °C overnight. Bound material was washed 3x with lysis buffer or PBS, eluted with 15 mM Glutathione in PBS and analyzed by immunoblotting. In pull-down […]
inhibitors or DMSO control in PBS were added together with RIPK2 kinase domain to GST-XIAP-BIR2 bound to Glutathione Sepharose. The bound material was eluted and analyzed as described above. […]

[6] = target: T4, GST-BIR2-XIAP (Homo sapiens, UniProt P98170, D214S); assay: SPOT peptide assay; type: binding; details: D214S mutant BIR2
T4 construct: XIAP BIR2 domain (aa 124-242) into pGTVL2 vector in frame with N-terminal HIS and GST tags; made in house; host or cells: E. coli (BL21)
Method: (§9) Cellulose‐bound peptide arrays were prepared employing standard Fmoc solid‐phase peptide synthesis using a MultiPep‐RSi‐Spotter (INTAVIS, Köln, Germany) as previously described (Picaud & Filippakopoulos, 2015). The assay was performed using recombinant 6xHIS‐GST‐BIR2 domain of XIAP protein, and bound protein was detected using anti‐His antibody HRP‐conjugated.
as §8, with “For GST pull-down experiments, U2OS/NOD2 were lysed in TBS lysis buffer containing 0.5% NP-40, cOmplete and PhosSTOP inhibitors (Roche).” left out
(§10) Cleared lysates were pretreated with kinase inhibitors or DMSO and incubated with GST-XIAP-BIR2 bound to Glutathione Sepharose at 4 °C overnight. Bound material was washed 3x with lysis buffer or PBS, eluted with 15 mM Glutathione in PBS and analyzed by immunoblotting. […] The bound material was eluted and analyzed as described above.
as §7
(§11) Proteins bound to peptides were detected using anti-His antibody HPR conjugated (diluted 1:15000) and the Pierce® ECL Western blotting Substrate (#32106, Thermo Fisher Scientific). […]

[7] = target: T5, GST-BIR2-XIAP (Homo sapiens, UniProt P98170); assay: SPOT peptide assay; type: binding; details: GST-tagged WT BIR2
T5 construct: XIAP BIR2 domain (aa 124-242) into pGTVL2 vector in frame with N-terminal HIS and GST tags; made in house; host or cells: E. coli (BL21)
Method: as §9
as §8, with “For GST pull-down experiments, U2OS/NOD2 were lysed in TBS lysis buffer containing 0.5% NP-40, cOmplete and PhosSTOP inhibitors (Roche).” left out
as §10, §7, §11

| binding of D214S versus WT BIR2 domain to peptide [6] | binding of WT XIAP BIR2 domain to peptide [7] | Compound | inhibition of NOD2 signaling (CXCL8) in cells expressing RIPK2 T95W [1] | co-immunoprecipitation of endogenous RIPK2 with HA-XIAP [2] | binding to RIPK2 T95W in cells [3] | ubiquitination of kinase-dead RIPK2 variants after NOD2 stimulation ([4]; U2OS/NOD2 RIPK2 KO cells reconstituted with K47R or D146N) | RIPK2 ubiquitination after L18-MDP ([4]; U2OS/NOD2 or THP-1 cells, L18-MDP 200 ng/ml, 1 h) | pulldown of RIPK2 by GST-BIR2-XIAP from cell lysates [5] |
| --- | --- | --- | --- | --- | --- | --- | --- | --- |
|  |  | Cc1ccc(C(=O)Nc2ccc(CN3CCN(C)CC3)c(C(F)(F)F)c2)cc1C#Cc1cnc2cccnn12 [ponatinib, reference compound] | largely abolished the inhibitory effect | prevented | ablated the binding | prevented ubiquitination | antagonized | interfered |
| reduced | binds predominantly | A-S-G-T-V-S-S-A-R-H-A-D-W-R-V (ASGTVSSARHADWRV) [A13, RIPK2 15-mer SPOT peptide, residues 28-42] |  |  |  |  |  |  |
